Experimental data as given in ChEMBL document CHEMBL1201862, “PubChem BioAssay data set” (2004).
Active and inactive are the calls of the source.

Experiments:
Protein skinhead-1 = biological target: T1, Protein skinhead-1 (Caenorhabditis elegans, UniProt P34707); format: functional
T1 sequence (P34707 whole entry): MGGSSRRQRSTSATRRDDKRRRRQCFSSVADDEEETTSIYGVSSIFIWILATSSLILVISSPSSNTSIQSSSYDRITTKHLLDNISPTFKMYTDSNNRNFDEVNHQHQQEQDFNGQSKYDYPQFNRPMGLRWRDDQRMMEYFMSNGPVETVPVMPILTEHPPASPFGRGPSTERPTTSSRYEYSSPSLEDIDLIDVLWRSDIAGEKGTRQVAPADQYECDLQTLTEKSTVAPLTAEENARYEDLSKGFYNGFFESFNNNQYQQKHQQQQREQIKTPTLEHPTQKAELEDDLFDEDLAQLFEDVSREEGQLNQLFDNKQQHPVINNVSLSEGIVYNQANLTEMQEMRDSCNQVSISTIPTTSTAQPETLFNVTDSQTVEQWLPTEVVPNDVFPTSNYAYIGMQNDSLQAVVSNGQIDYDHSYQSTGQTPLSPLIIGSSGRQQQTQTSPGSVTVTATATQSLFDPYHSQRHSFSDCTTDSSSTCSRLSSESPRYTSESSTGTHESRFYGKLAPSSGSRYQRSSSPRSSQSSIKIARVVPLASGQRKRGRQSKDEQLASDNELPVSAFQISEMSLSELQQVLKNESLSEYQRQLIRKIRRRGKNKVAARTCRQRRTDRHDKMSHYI

[1] = biological target: Peroxisome proliferator-activated receptor gamma/Nuclear receptor coactivator 1 (Homo sapiens, UniProt P37231); experiment: (§1) TR-FRET dose response biochemical High Throughput Screening assay for agonists of the steroid receptor coactivator 1 (SRC-1) recruitment by the peroxisome proliferator-activated receptor gamma (PPAR gamma): non-selective agonists. [Related pubchem assays (depositor defined):AID1300, AID1808, AID504735, AID631]; format: protein assay
Beta-lactamase [2] = biological target: Beta-lactamase (Salmonella choleraesuis (strain SC-B67), UniProt Q5J463); experiment: Epi-absorbance-based counterscreen for selective VIM-2 inhibitors: dose response biochemical high throughput screening assay to identify inhibitors of TEM-1 serine-beta-lactamase.
Beta-lactamase [3] = biological target: T2, Beta-lactamase (Pseudomonas aeruginosa, UniProt Q79MP6); experiment: […] counterscreen for selective VIM-2 inhibitors: dose response biochemical high throughput screening assay to identify inhibitors of IMP-1 metallo-beta-lactamase.
Beta-lactamase [4] = biological target: T2, Beta-lactamase; experiment: inhibition of IMP-1 beta-lactamase activity – biochemical, epi-absorbance, selectivity assay for VIM-2 inhibitor project, dose response (AID 1920)
[5] = biological target: FAD-linked sulfhydryl oxidase ALR (Homo sapiens, UniProt P55789); experiment: ALR-catalysed DTT oxidation blockers – biochemical, H2O2 detection, luminescence, cherry-pick, dose response (AID 493248)
[6] = biological target: Peroxisome proliferator-activated receptor gamma/Nuclear receptor coactivator 3 (Homo sapiens, UniProt P37231); experiment: as §1, with “3 (SRC-3)” for “1 (SRC-1)”, “assays: 1301 (Confirmation screen.), 1048 (Primary screen.)]” for “assays (depositor defined):AID1300, AID1808, AID504735, AID631]”; format: functional
[7] = biological target: Peroxisome proliferator-activated receptor gamma/Nuclear receptor coactivator 2 (Homo sapiens, UniProt P37231); experiment: TR-FRET dose response biochemical High Throughput Screening assay for agonists of the steroid receptor coactivator 2 (SRC-2) recruitment by the peroxisome proliferator-activated receptor gamma (PPAR gamma): non-selective agonists. [Related pubchem assays: 1297, 1032 ]; format: functional
cells [8] = experiment: cells
Major prion protein = Major prion protein (Homo sapiens, UniProt P04156); format: functional, cell-based
Estrogen receptor beta [9] = biological target: T3, Estrogen receptor beta (Homo sapiens, UniProt Q92731); experiment: blockers of SRC-3 recruitment to ERβ – biochemical, ELISA, streptavidin-HRP readout, orthogonal assay, confirmation (AID 1060)
Estrogen receptor beta [10] = biological target: T3, Estrogen receptor beta
[11] = biological target: Protein-tyrosine kinase 2-beta (Homo sapiens, UniProt Q14289);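 also: potency of inhibitors of PYK2 kinase phosphorylation of poly-GT substrate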
[12] = activation of miR-122 Renilla sensor silencing – cell-based, Huh7 psiCHECK-miR122, Renilla luciferase, cherry-picked, dose response (AID 651956); format: functional;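 also: huh7 hepatoma cells stably carrying a psiCHECK-2 miR-122 sensor plasmid; renilla luciferase signal reporting endogenous miR-122 activity after 48 h compound exposure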
[13] = general mammalian cell viability loss – inhibitor set, cherry-pick, set 2, cytotoxicity control for miR-122 modulator project, dose response (AID 720697); format: functional, cell-based
cells [14] = format: functional, cell-based
cells [15] = format: functional, cell-based; remark: listed apart in the source
[16] = biological target: T4, Sentrin-specific protease 6 (Homo sapiens, UniProt Q9GZR1); experiment: SAR Analysis of small molecule inhibitors of Sentrin-specific protease 6 (SENP6) using a Luminescent assay. [Related pubchem assays (depositor defined):AID2582, AID2599]; format: functional
T4 sequence (Q9GZR1 whole entry): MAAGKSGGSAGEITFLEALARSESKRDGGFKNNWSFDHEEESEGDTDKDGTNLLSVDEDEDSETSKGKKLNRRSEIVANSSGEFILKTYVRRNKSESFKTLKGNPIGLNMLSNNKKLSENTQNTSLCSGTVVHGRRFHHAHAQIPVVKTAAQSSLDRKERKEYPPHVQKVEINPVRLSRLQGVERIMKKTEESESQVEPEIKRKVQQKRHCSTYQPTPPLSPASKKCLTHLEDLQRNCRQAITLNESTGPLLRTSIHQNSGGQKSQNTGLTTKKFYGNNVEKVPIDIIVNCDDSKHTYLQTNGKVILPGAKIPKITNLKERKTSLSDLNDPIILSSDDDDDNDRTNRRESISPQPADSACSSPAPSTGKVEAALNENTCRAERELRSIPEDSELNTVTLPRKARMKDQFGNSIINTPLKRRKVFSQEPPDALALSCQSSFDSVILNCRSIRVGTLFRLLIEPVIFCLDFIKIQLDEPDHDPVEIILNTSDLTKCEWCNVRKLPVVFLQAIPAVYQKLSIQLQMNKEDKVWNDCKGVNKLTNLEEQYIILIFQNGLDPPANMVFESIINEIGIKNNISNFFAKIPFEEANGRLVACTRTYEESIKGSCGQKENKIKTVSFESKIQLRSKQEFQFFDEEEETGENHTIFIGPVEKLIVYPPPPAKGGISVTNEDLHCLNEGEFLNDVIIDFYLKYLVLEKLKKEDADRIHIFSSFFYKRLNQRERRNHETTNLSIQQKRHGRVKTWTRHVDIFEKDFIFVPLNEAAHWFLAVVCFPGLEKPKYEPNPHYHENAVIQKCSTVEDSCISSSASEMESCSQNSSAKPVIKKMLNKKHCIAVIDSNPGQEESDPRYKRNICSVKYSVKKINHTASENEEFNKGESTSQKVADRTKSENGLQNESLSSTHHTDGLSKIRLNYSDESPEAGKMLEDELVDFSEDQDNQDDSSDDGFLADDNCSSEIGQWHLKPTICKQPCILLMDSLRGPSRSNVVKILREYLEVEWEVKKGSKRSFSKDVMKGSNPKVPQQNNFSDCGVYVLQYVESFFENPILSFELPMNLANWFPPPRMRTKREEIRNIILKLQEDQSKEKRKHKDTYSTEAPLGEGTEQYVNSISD

[17] = biological target: T5, Sentrin-specific protease 8 (Homo sapiens, UniProt Q96LD8); experiment: inhibition of human SENP8 cleavage activity – biochemical, luminescence, SAR follow-up (AID 504501); format: functional
T5 sequence (Q96LD8 whole entry): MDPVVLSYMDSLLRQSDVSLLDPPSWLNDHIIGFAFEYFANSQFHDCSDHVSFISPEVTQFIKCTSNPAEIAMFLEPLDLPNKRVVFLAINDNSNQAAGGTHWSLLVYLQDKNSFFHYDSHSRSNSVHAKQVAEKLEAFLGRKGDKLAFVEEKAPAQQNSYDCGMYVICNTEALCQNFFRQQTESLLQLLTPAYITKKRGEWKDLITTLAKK

Caspase-3 = biological target: T6, Caspase-3 (Homo sapiens, UniProt P42574); experiment: SAR Analysis of small molecule inhibitors of Sentrin-specific proteases (SENPs) using a Caspase-3 Selectivity assay. [Related pubchem assays (depositor defined):AID2540, AID2599, AID434973, AID489001]; format: functional
T6 sequence (P42574 whole entry): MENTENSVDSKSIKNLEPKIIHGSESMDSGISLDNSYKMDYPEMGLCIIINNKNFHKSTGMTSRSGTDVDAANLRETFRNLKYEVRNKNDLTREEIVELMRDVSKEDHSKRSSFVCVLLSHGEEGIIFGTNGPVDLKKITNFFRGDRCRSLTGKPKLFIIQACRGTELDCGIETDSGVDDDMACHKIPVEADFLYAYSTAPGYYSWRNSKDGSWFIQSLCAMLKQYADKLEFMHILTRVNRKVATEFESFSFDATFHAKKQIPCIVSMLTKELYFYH

[18] = general cell-killing toxicity readout – plate reader, dry powder samples, cytotoxicity control for PAX8 inhibitor project, dose response (AID 743021); format: functional, cell-based
[19] = P. falciparum Dd2 growth inhibitors, dose response, SYBR Green, cherry-picked samples (AID 1159567); format: functional, cell-based
Paired box protein Pax-8 = Paired box protein Pax-8 (Homo sapiens, UniProt Q06710); experiment: PAX8 transcriptional activity inhibition in RMG-I – RMG-I cells, luciferase, cherry-pick, dose response (AID 687027); format: functional, cell-based;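 also: luciferase reporter driven by Pax8 target thyroperoxidase promoter measured by SteadyGlo luminescence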
[20] = toxicity to human hepatoma HepG2 cells – cell-based, cherry-picked samples, cytotoxicity control, dose response (AID 1159577); format: functional
[21] = IGROV1 cell killing – plate reader, dry powder samples, PAX8 inhibitor project, dose response (AID 743043); format: functional, cell-based; conditions: IGROV-1
[22] = OVCAR-3 cell viability loss – plate reader, dry powder samples, PAX8 inhibitor project, dose response (AID 743044); format: functional, cell-based
[23] = HGIII-sPLA2 enzyme inhibition potency – biochemical, QFRET, IC50, dose response (AID 743457);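 also: green fluorescence rise as the enzyme cleaves BODIPY PC-A2 in liposomes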
[24] = biological target: T7, DNA repair protein RAD52 homolog (Homo sapiens, UniProt P43351); format: functional, biochemical
T7 sequence (P43351 whole entry): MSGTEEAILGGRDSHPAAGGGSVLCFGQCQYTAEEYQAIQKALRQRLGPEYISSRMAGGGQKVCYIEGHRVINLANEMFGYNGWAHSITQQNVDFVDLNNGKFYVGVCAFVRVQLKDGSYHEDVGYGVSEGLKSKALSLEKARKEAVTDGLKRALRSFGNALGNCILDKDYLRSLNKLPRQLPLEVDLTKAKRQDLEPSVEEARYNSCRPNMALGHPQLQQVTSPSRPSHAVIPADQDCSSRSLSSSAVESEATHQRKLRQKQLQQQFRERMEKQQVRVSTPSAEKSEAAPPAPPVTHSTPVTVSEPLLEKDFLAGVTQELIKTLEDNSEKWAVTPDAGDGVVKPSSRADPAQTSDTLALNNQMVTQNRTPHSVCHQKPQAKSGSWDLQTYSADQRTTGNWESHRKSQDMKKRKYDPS

[25] = T. cruzi growth inhibition in host cells, dose response, cell-based, plate reader, dry powder, set 2 (AID 652275); format: functional
[26] = viability loss in HEK293 kidney cells – cell-based, cherry-picks, set 5, cytotoxicity control, dose response (AID 1053117); format: functional

Cc1c(Cl)c(-c2nnc(S)n2-c2ccc(F)cc2)nn1C
IC50 (Protein skinhead-1): > 100 µM (inactive)
EC50 [1]: > 79.4 µM (inactive)
IC50 (Beta-lactamase [2]): > 59.6 µM (inactive)
IC50 (Beta-lactamase [3]): > 59.6 µM (inactive)
IC50 (Beta-lactamase [4]): > 59.6 µM (inactive)
AC50 [5]: 5.12 µM (active)
EC50 [6]: > 79.4 µM (not active)
EC50 [7]: > 79.4 µM (not active)

CCC(Sc1ncnc2sc(C)c(C)c12)C(=O)OC (stereo unspecified)
IC50 (cells [8]): > 138 µM (inactive)
IC50 (Major prion protein): 2.46 µM (active)
IC50 (Estrogen receptor beta [9]): < 0.023 µM (not active)
IC50 (Estrogen receptor beta [10]): 14.1 µM (active)

COC(=O)CSc1nc(C(C)C)nc2ccccc12
IC50 (cells [8]): > 138 µM (inactive)
IC50 (Major prion protein): 0.91 µM (active)
IC50 [11]: > 69.5 µM (not active)

CN(C)C(=O)c1ccc(NC(=O)c2cc(-n3cnnc3)ccc2Cl)cc1
AC50 [12]: 1.1 µM (active)
AC50 [13]: 1.88 µM (active)

O=C(NCCS(=O)(=O)NCCc1ccccc1)c1ccc2c(c1)OCO2
IC50 (cells [14]): > 29.9 µM (inactive)
EC50 (cells [15]): > 29.9 µM (inactive)

O=C(Nc1ccccc1F)c1ccc(OCc2ccccc2)cc1
IC50 (cells [14]): > 29.9 µM (inactive)
IC50 [16]: > 99 µM (inactive)
IC50 [17]: > 99 µM (inactive)
EC50 (cells [15]): > 29.9 µM (inactive)
IC50 (Caspase-3): 10.3 µM (active)

NC(=O)c1csc(-c2ccncc2)n1
AC50 [13]: 8.85 µM (active)

COc1ccc(-c2ccc([C@@H]3[C@@H](CO)N4CCCCN(C(=O)Cc5ccccc5)C[C@H]34)cc2)cc1
AC50 [18]: 40.8 µM (active)
AC50 [19]: 6.32 µM (active)
AC50 (Paired box protein Pax-8): 41.5 µM (active)
AC50 [20]: > 39 µM (inactive)

O=C1CN(S(=O)(=O)Cc2ccccc2)C[C@@H]2[C@H](c3ccc(C#Cc4ccc(F)cc4)cc3)[C@H](CO)N12
AC50 [21]: 52.7 µM (active)
AC50 [22]: 31 µM (active)
AC50 (Paired box protein Pax-8): 9.68 µM (active)

N=C(N)/N=N/C(=N\Nc1ccccc1)c1ccc(Cl)cc1
IC50 [23]: > 122 µM (inactive)
AC50 [24]: 12.7 µM (active)

CN(C)C(=O)c1cccc(-c2ccc([C@H]3[C@H](CO)N4CCCCN(C(=O)C5CCCC5)C[C@@H]34)cc2)c1
AC50 [25]: 0.065 µM (active)

CO[C@H]1CN(C)C(=O)c2cc(NC(=O)Nc3ccc(Cl)c(Cl)c3)ccc2OC[C@@H](C)NC[C@H]1C
AC50 [26]: > 52 µM (inactive)
